According to patent US7314626B2, “Use of peptide vectors to improve the immune response to antigens” (SYNT:EM S.A., priority 2001, dated 2008):

Assays:
Balb/c mice = assay: Immunization with flu NP peptide, CTL responses by 51Cr release assay; type: in vivo; conditions: FIG. 2; for specific CTL responses: intradermal, 25 μg flu NP peptide equivalent, spleens after three weeks; for mice eliciting CTL responses: three mice per group
K562 cells = assay: Cell uptake by K562 cells, flow cytometry (Mean Fluorescence Intensity); type: cell-based; conditions: for cell uptake as judged by the mean of fluorescence intensity: 37° C.
Experimental: Cell association was measured by flow cytometry using a FACScan (Becton Dickinson, USA). Free or vectorised compounds were incubated with K562 cells (5×10^5 cells per ml) in Optimem medium at 37° C. for various periods of time.
Thereafter, the cells were washed twice and then resuspended in 0.5 ml of ice-cold PBS for FACS analysis. Cell-associated fluorophores were excited at 488 nm and fluorescence was measured at 525 nm. A histogram of fluorescence intensity per cell (1×10^4) was obtained and the calculated mean of this distribution (Mean Fluorescence Intensity) was considered as representative of the amount of cell-associated peptide
Flu NP epitope was conjugated to SynB3 and SynB4 vectors. First, we compared the cell uptake of free and conjugated flu NP. Flu NP epitope was conjugated to SynB3 and SynB4 vectors and labelled with a fluorescent group (NBD). The compounds were incubated with K562 cells for various times and the cell uptake was measured using flow cytometry.
We also coupled rDPV protein with SynB3 and SynB4 vectors. The coupling procedure is described in the Protocols. First, we compared the cell uptake of free and coupled rDPV. The rDPV was labelled with a fluorescent group (NBD) in order to measure its uptake. The compounds were incubated with K562 cells for various times and the cell uptake was measured using flow cytometry.

C57B1/6/c mice = assay: Immunization with rDPV protein, DPV specific CTL responses by 51Cr release assay; type: in vivo; conditions: 5 μg intradermal on day 0 and day 21, spleens day 42, FIG. 4, effective response defined as >10% specific lysis
[1] = NBD-labelled free or conjugated flu NP, FIG. 1
[2] = NBD-labelled free or coupled rDPV, FIG. 3

Substance	specific CTL responses (Balb/c mice)	mice eliciting CTL responses (Balb/c mice)	cell uptake as judged by the mean of fluorescence intensity (K562 cells; [1])	cell uptake higher than the one observed for free flu NP (K562 cells; at 45 min)	mean CTL response (C57B1/6/c mice)	time at which cell uptake reached saturation (K562 cells; FIG. 3) [min]	cell uptake as judged by the mean of fluorescence intensity (K562 cells; [2])	cell uptake as judged by the mean of fluorescence intensity (K562 cells; NBD-labelled free or coupled rDPV, FIG. 3, listed as rDPV-SynB4)
AWSFRVSYRGISYRRSR-TYQRTRALV (SEQ ID NO:21) (AWSFRVSYRGISYRRSRTYQRTRALV) [SynB4/flu NP]	elicited specific CTL responses	all mice	increased significantly	about 5 fold				
AWSFRVSYRGISYRRSR-rDPV ((SEQ ID NO:18)-rDPV) [SynB4/rDPV]					strong CTL responses	100	increased significantly	slightly better than SynB3
RRLSYSRRRF-TYQRTRALV (SEQ ID NO:22) (RRLSYSRRRFTYQRTRALV) [SynB3/flu NP]	elicited specific CTL responses	all mice	increased significantly					
RRLSYSRRRF-rDPV ((SEQ ID NO:11)-rDPV) [SynB3/rDPV]					strong CTL responses	30	increased significantly	
TYQRTRALV (SEQ ID NO:20) [flu NP, reference compound]	failed to elicit specific CTL responses		very low uptake					
